ChEMBL document CHEMBL5352412, “Discovery of 1,2-diphenylethene derivatives as human DNA topoisomerase II catalytic inhibitors and antitumor agents” (Eur J Med Chem, 2022)

Tests used:
MDA-MB-231 = assay: Antiproliferative activity against human MDA-MB-231 cells incubated for 72 hrs by CCK8 assay; type: functional, cell-based; details: Homo sapiens, MDA-MB-231, 72 h
[1] = molecular target: T1, DNA topoisomerase 2-alpha (Homo sapiens, UniProt P11388); assay: Inhibition of human topoisomerase 2-alpha assessed as reduction in relaxation of pBR322 DNA at 100 uM measured after 30 mins by agarose gel electrophoresis method relative to control
[2] = molecular target: T1, DNA topoisomerase 2-alpha; assay: Inhibition of human topoisomerase 2-alpha assessed as reduction in relaxation of pBR322 DNA at 25 uM measured after 30 mins by agarose gel electrophoresis method relative to control
HepG2 = assay: Antiproliferative activity against human HepG2 cells incubated for 72 hrs by CCK8 assay; type: functional, cell-based; details: Homo sapiens, HepG2, 72 h
[3] = molecular target: T1, DNA topoisomerase 2-alpha; assay: Inhibition of human topoisomerase 2-alpha assessed as reduction in relaxation of pBR322 DNA measured after 30 mins by agarose gel electrophoresis method

T1 sequence (P11388 whole entry): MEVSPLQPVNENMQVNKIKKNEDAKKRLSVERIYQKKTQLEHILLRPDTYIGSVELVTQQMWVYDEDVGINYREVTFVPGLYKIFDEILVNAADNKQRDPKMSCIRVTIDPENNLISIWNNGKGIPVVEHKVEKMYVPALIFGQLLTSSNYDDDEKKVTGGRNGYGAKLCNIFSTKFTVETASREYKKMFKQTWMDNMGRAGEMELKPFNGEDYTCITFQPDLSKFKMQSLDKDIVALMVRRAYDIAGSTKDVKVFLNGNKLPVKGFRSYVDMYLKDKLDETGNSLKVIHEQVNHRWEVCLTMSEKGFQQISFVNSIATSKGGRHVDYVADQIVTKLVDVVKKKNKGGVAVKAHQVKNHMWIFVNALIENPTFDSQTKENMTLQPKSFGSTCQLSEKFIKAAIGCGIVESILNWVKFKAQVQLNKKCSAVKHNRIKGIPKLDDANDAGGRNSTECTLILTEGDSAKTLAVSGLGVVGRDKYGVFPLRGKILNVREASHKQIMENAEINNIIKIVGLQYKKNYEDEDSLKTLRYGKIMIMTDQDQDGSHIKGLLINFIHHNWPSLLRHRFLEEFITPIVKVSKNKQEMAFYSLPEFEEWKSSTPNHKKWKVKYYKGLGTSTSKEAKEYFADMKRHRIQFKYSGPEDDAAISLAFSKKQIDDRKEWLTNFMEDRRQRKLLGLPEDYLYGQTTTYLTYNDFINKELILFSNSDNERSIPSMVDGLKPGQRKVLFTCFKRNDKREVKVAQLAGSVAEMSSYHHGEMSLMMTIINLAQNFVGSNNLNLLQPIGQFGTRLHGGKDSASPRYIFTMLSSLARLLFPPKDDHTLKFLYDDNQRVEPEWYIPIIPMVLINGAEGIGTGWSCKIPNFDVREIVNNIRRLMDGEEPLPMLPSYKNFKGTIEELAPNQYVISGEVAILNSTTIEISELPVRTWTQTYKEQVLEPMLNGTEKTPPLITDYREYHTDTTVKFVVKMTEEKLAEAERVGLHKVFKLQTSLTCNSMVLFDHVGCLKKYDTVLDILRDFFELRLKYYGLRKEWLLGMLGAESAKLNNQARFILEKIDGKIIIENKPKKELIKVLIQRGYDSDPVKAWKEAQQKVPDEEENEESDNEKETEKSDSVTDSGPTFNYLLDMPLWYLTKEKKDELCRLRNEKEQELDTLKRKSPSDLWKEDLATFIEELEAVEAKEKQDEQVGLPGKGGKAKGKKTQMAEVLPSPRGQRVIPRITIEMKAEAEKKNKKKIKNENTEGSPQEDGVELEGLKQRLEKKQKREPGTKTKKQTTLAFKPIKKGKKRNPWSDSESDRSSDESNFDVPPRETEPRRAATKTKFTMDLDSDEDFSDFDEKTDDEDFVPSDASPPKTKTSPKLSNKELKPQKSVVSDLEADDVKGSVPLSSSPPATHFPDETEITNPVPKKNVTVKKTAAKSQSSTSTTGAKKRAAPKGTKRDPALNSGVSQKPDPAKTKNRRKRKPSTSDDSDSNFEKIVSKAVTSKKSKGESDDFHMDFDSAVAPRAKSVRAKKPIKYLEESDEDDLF

| IC50 (MDA-MB-231) [µM] | inhibition [1] [%] | inhibition [2] [%] | IC50 (HepG2) [µM] | IC50 [3] [µM] | Structure (SMILES) |
| --- | --- | --- | --- | --- | --- |
| 42.4 | 87.2 | 10.5 |  |  | Oc1cc(O)cc(/C=C/c2ccc(O)c(-c3ccccc3)c2)c1 |
| 21.1 | 9.9 | 0.2 | 32 |  | C/C=C/C(=O)Nc1cc(/C=C/c2cc(O)cc(O)c2)ccc1O |
| 15.4 | 86.3 | 75.4 | 30 |  | Oc1ccc(-c2ccc(O)c(/C=C/c3cc(O)cc(O)c3)c2)cc1 |
|  | 59.6 | 1.7 |  |  | CCCNC(=O)/C=C/c1cc(/C=C/c2cc(O)cc(O)c2)ccc1O |
|  | 52.7 | 0.6 |  |  | C/C=C/C(=O)Nc1ccc(O)c(/C=C/c2cc(O)cc(O)c2)c1 |
| 15.9 | 87.4 | 43.2 | 5.3 |  | O=C(/C=C/c1ccccc1)Nc1ccc(-c2nc3ccc(O)cc3s2)cc1 |
|  | 67.2 | 27.1 | 36.6 |  | O=C(/C=C/c1ccccc1)Nc1ccc(NC(=O)c2cc(O)cc(O)c2)cc1 |
|  | 45 | 2.4 |  |  | CNC(=O)/C=C/c1cc(/C=C/c2cc(O)cc(O)c2)ccc1O |
|  | 3.7 |  |  |  | COc1cc(OC)cc(C(=O)Nc2ccc(NC(=O)CCc3ccccc3)cc2)c1 |
| 26.6 | 77.4 | 12.6 | 36.8 |  | Oc1cc(O)cc(/C=C/c2ccc(O)c(-c3ccoc3)c2)c1 |
|  | 0 |  |  |  | COc1ccc2nc(-c3ccc(NC(=O)CCc4ccccc4)cc3)sc2c1 |
|  | 9.7 |  |  |  | O=C(CCc1ccccc1)Nc1ccc(-c2cnc3cc(O)ccc3c2)cc1 |
| 9.5 | 88.4 | 75.2 | 8.2 |  | Oc1cc(O)cc(/C=C/c2cc(-c3ccsc3)ccc2O)c1 |
| 31.2 | 90.7 | 79.3 | 29.1 |  | Oc1cc(O)cc(/C=C/c2cc(-c3cccc(O)c3)ccc2O)c1 |
| 12.1 | 86.8 | 7.5 | 4 |  | O=C(CCc1ccccc1)Nc1ccc(-c2nc3ccc(O)cc3s2)cc1 |
|  | 2.1 |  |  |  | COc1cc(OC)cc(C(=O)Nc2ccc(NC(=O)/C=C/c3ccccc3)cc2)c1 |
| 12.6 | 95.5 | 75.4 | 18.6 |  | O=[N+]([O-])c1cccc(-c2ccc(O)c(/C=C/c3cc(O)cc(O)c3)c2)c1 |
| 19.9 | 47.8 | 0.1 |  |  | CN(C)C(=O)/C=C/c1ccc(/C=C/c2cc(O)cc(O)c2)cc1 |
|  | 0.1 |  |  |  | COc1ccc2cc(-c3ccc(NC(=O)/C=C/c4ccccc4)cc3)ccc2c1 |

| IC50 (MDA-MB-231) [µM] | inhibition [1] [%] | inhibition [2] [%] | IC50 (HepG2) [µM] | IC50 [3] [µM] | Structure (SMILES) |
| --- | --- | --- | --- | --- | --- |
|  | 63.5 | 1.2 |  |  | CNC(=O)/C=C/c1ccc(O)c(/C=C/c2cc(O)cc(O)c2)c1 |
| 39.5 | 0.1 |  | 37.4 |  | COc1ccc2cc(-c3ccc(NC(=O)/C=C/c4ccccc4)cc3)cnc2c1 |
|  | 29.8 | 3.9 |  |  | NC(=O)/C=C/c1ccc(/C=C/c2cc(O)cc(O)c2)cc1 |
|  | 54.5 | 4.1 |  |  | O=C(CCc1ccccc1)Nc1ccc(NC(=O)c2cc(O)cc(O)c2)cc1 |
| 39.2 | 64 | 17.6 |  |  | Oc1ccc(-c2cc(/C=C/c3cc(O)cc(O)c3)ccc2O)cc1 |
| 19.1 | 78.5 | 63.2 | 31.9 |  | Oc1cc(O)cc(/C=C/c2ccc(-c3ccsc3)cc2)c1 |
| 7.8 | 65.9 | 26.8 | 23.7 |  | CCCNC(=O)/C=C/c1ccc(/C=C/c2cc(O)cc(O)c2)cc1 |
| 7.2 | 87.9 | 81.3 | 9.5 |  | Oc1cc(O)cc(/C=C/c2cc(-c3ccccc3)ccc2O)c1 |
|  | 0 |  |  |  | COc1ccc2cc(-c3ccc(NC(=O)CCc4ccccc4)cc3)ccc2c1 |
| 22.6 | 86.8 | 15.2 | 34 |  | Oc1cc(O)cc(/C=C/c2ccc(O)c(-c3ccsc3)c2)c1 |
| 5.7 | 71.1 | 6.9 | 14 |  | O=C(/C=C/c1ccc(/C=C/c2cc(O)cc(O)c2)cc1)N1CCCCC1 |
|  | 29.7 | 2.3 |  |  | CNC(=O)/C=C/c1ccc(/C=C/c2cc(O)cc(O)c2)cc1 |
|  | 76.6 | 18.4 |  |  | NC(=O)/C=C/c1ccc(O)c(/C=C/c2cc(O)cc(O)c2)c1 |
|  | 15.3 | 0.1 |  |  | COc1cc(/C=C/c2ccc(NC(=O)/C=C/c3ccccc3)cc2)cc(OC)c1 |
| 16.7 |  |  |  |  | Oc1ccc2cc(-c3ccc(Cl)cc3Cl)cnc2c1 |
| 24.7 | 98.1 | 61.5 |  |  | O=C(/C=C/c1ccccc1)Nc1ccc(O)c(/C=C/c2cc(O)cc(O)c2)c1 |
| 11.3 | 82.9 | 63.2 | 18 |  | Oc1cc(O)cc(/C=C/c2ccc(-c3cccc(O)c3)cc2)c1 |
| 21.8 | 0.04 |  |  |  | COc1cc(CCc2ccc(NC(=O)/C=C/c3ccccc3)cc2)cc(OC)c1 |
| 10.5 | 81.2 | 12.2 | 18 |  | Oc1cc(O)cc(/C=C/c2ccc(-c3ccccc3)cc2)c1 |

| IC50 (MDA-MB-231) [µM] | inhibition [1] [%] | inhibition [2] [%] | IC50 (HepG2) [µM] | IC50 [3] [µM] | Structure (SMILES) |
| --- | --- | --- | --- | --- | --- |
| 33.2 | 93.6 | 97.1 |  |  | O=[N+]([O-])c1cccc(-c2cc(/C=C/c3cc(O)cc(O)c3)ccc2O)c1 |
|  | 82.3 | 55.4 |  |  | O=C(/C=C/c1ccccc1)Nc1ccc(-c2cnc3cc(O)ccc3c2)cc1 |
| 21.1 | 19.7 | 0 |  |  | COc1ccc2cc(-c3ccc(NC(=O)CCc4ccccc4)cc3)cnc2c1 |
| 16.7 | 84.5 | 7.1 | 30 |  | O=C(/C=C/c1cc(/C=C/c2cc(O)cc(O)c2)ccc1O)N1CCCCC1 |
| 37.2 |  |  |  |  | COc1ccc2nc(-c3ccc(N)cc3)sc2c1 |
| 42.3 | 72.1 | 34.5 |  |  | Oc1cc(O)cc(/C=C/c2ccc(O)c(-c3cccc(O)c3)c2)c1 |
| 27.5 | 66.1 | 30.4 | 24.5 |  | Oc1cc(O)cc(/C=C/c2ccc(-c3ccoc3)cc2)c1 |
| 33.9 | 62.5 | 16.4 | 14.5 |  | O=C(CCc1ccccc1)Nc1ccc(/C=C/c2cc(O)cc(O)c2)cc1 |
| 11.4 | 68.7 | 55.3 | 16.2 |  | O=[N+]([O-])c1cccc(-c2ccc(/C=C/c3cc(O)cc(O)c3)cc2)c1 |
| 12 | 1.2 |  | 3.5 |  | COc1cc(CCc2ccc(NC(=O)CCc3ccccc3)cc2)cc(OC)c1 |
| 7.2 | 0.2 |  | 10.9 |  | COc1cc(/C=C/c2ccc(NC(=O)CCc3ccccc3)cc2)cc(OC)c1 |
| 13.6 | 94.5 | 79.5 | 24.3 |  | O=C(/C=C/c1ccccc1)Nc1cc(/C=C/c2cc(O)cc(O)c2)ccc1O |
| 7.8 | 83.8 | 57.1 | 10.6 |  | Oc1ccc(-c2ccc(/C=C/c3cc(O)cc(O)c3)cc2)cc1 |
| 4.2 | 11.3 |  | 2.8 |  | O=C(/C=C/c1ccccc1)Nc1ccc(CCc2cc(O)cc(O)c2)cc1 |
| 20.1 | 82.1 | 21.3 | 20.5 | 59.8 | Oc1cc(O)cc(/C=C/c2cc(-c3ccoc3)ccc2O)c1 |
| 19.8 | 91.3 | 18.3 |  |  | O=C(/C=C/c1ccc(O)c(/C=C/c2cc(O)cc(O)c2)c1)N1CCCCC1 |
|  | 36.7 | 0 |  |  | COc1ccc2nc(-c3ccc(NC(=O)/C=C/c4ccccc4)cc3)sc2c1 |
| 3.8 | 12.5 | 0.4 | 4.6 |  | C/C=C/C(=O)Nc1ccc(/C=C/c2cc(O)cc(O)c2)cc1 |
| 4.6 | 9.1 |  | 2.9 |  | O=C(CCc1ccccc1)Nc1ccc(CCc2cc(O)cc(O)c2)cc1 |
